# Test results as given in US9289446B2, “Myocardial perfusion imaging methods and compositions” (GILEAD SCIENCES, INC., priority 2002, dated 2016).
# Columns and labels:
# [1] = Example 3: maximum tolerated dose and safety of single IV bolus CVT-3146 in healthy volunteers, supine and standing; format: in vivo; details: 30 μg/kg supine, 4 subjects per group
# Description: (§1) This Example is a study performed to evaluate (1) the maximum tolerated dose of CVT-3146 and (2) the pharmacokinetic profile of CVT-3146 in healthy volunteers, after a single IV bolus dose.
# (§2) The study was performed using thirty-six healthy, non-smoking male subjects between the ages of 18 and 59 and within 15% of ideal body weight.
# The study was performed in phase 1, single center, double-blind, randomized, placebo-controlled, crossover, ascending dose study. Randomization was to CVT-3146 or placebo, in both supine and standing positions.
# (§3) CVT-3146 was administered as an IV bolus (20, seconds) in ascending doses of […], 10, 20, and 30 μg/kg.
# Subjects received either CVT-3146 of placebo on Day 1 supine, then crossover treatment on Day 2 supine. On Day 3, subjects received CVT-3146 or placebo standing, then crossover treatment on Day 4 standing.
# Patient safety was monitored by ECG, laboratory assessments, and collection of vital signs and adverse events.
# Pharmacodynamics: • The study evaluated the relationship of changes in heart rate to dose in both standing and supine positions and plasma concentration in the supine position. Results
# [2] = tested on: heart rate (HR) and blood pressure (BP); assay: Example 5: heart rate, blood pressure and plasma catecholamines after i.v. bolus in awake rats (sympathoexcitation); format: in vivo
# Description: The present study was carried out to determine whether CVT-3146, a selective A2A adenosine receptor agonist, causes sympathoexcitation.
# CVT (0.31 μg/kg-50 μg/kg) was given as a rapid i.v. bolus to awake rats and heart rate (HR) and blood pressure (BP) were monitored. CVT-3146 caused an increase in BP and systolic pressure (SP) at lower doses while at higher doses there was a decrease in BP and SP. […] The increase in HR was evident at the lowest dose of CVT at which there was no appreciable decrease in BP. ZM241385 (30 μg/kg, N=5), an A2A receptor antagonist, attenuated the decrease in BP (CVT-3146: 14±3%, ZM: 1±1%) and the increase in HR (CVT: 27±3%, ZM: 18±3%) caused by CVT-3146. Pretreatment with metoprolol (MET, 1 mg/kg, n=5), a beta-blocker, attenuated the increase in HR (CVT: 27±3%, MET: 15±2%), but had no effect on hypotension caused by CVT-3146. In the presence of hexamethonium (HEX, 10 mg/kg, n=5), a ganglionic blocker, the tachycardia was prevented (CVT: 27±3%, HEX: −1±2%), but BP was further reduced (CVT: −11±2%, HEX: −49±5%).
# [3] = Solubility of CVT-3146 in water and in MBA-containing composition; format: physicochemical; details: methylboronic acid co-solvent, dependence on pH
# Description: A preferred A2A receptor agonist of this invention is CVT-3146. CVT-3146 has solubility in water of about 50 micrograms/mL. Therefore, CVT-3146 can be dissolved and administered in water so long as the desired weight amount of CVT-3146 can be administered in an acceptable volume. For example, a preferred dose of about 400 micrograms can be administered in 8 mL of water. If this volume is too great for administration purposes, or if the pharmaceutical composition will be stored at other than room temperature (RT), then additional ingredients can be added to the composition to increase the solubility of CVT-3146 in the composition and/or to provide the resulting pharmaceutical composition with other improved properties such as improved stability and storage properties. Pharmaceutical compositions of this invention that include CVT-3146 may include up to about 1 milligram/mL of CVT-3146. It is preferred that pharmaceutical compositions including CVT-3146 include from about 50 to about 250 micrograms/mL, and more preferably from about 50 to 150 micrograms/mL of CVT-3146.
# In order to improve their solubility and storage properties, A2A receptor agonists of this invention can be administered in a pharmaceutical composition including a methylboronic acid (MBA) co-solvent. The methylboronic acid is added to the pharmaceutical composition to improve agonist solubility and shelf life. […]
# [4] = Example 3: pharmacokinetic profile of CVT-3146 in healthy volunteers after single IV bolus (three-compartment model); format: in vivo; details: male, human, plasma, Total (doses 1-30 μg/kg), N=22, mean, read-out: VSS (volume of distribution at steady state)
# Description: as §1, §2, §3
# Pharmacokinetics: • Plasma samples were drawn during supine phase (Days 1 and 2) at 0, 1, 2, 3, 4, 5, 7, 10, 15, 20, 30, 45 minutes after dosing and at 1, 1.5, 2, 4, 6, 8, 12 and 24 hours after dosing. Urine was collected for 24 hours for CVT-3146 excretion.
# A three-compartment open model was fit to the data using observed Tmax (1-4 minutes) as the duration of a zero-order infusion. Reliable parameter estimates were obtained for dose of 1-30 μg/kg. Parameters are summarized in the following (Table 2): […]
# [5] = tested on: blood flow in coronary, mesenteric, hind limb and renal vascular beds; assay: Example 8: vasodilator effects in different vascular beds (CBF, MBF, LBF, RBF) in awake dogs; format: in vivo; details: n=6, FIG. 18
# Description: Example 8 employed a pharmaceutical composition consisting of an aqueous composition of 100 micrograms/mL CVT-3146 in 15% (w:v) propylene glycol and 100 mM phosphate buffer at pH 7 with 0.1% EDTA. The formulation was stored in type I glass vials at 5 mL per vial.
# In this study the vasodilator effects of CVT-3146 were compared to those of ADO in different vascular beds in awake dogs. Dogs were chronically instrumented for measurements of the blood flow in coronary (CBF), mesenteric (MBF), hind limb (LBF), and renal (RBF) vascular beds, and hemodynamics.
smiles,measurement,setting,value
"CNC(=O)c1cnn(-c2nc(N)c3ncn([C@@H]4O[C@H](CO)[C@@H](O)[C@H]4O)c3n2)c1 [CVT-3146, (1-{9-[(4S,2R,3R,5R)-3,4-dihydroxy-5-(hydroxymethyl)oxolan-2-yl]-6-aminopurin-2-yl}pyrazol-4-yl)-N-methylcarboxamide]","Dizziness labeled as severe, number of subjects with AE",[1],0
same,"Palpitation labeled as severe, number of subjects with AE",[1],2
same,"Syncope labeled as severe, number of subjects with AE",[1],0
same,effect on HR over dose,[2]; 0.31 μg/kg-50 μg/kg rapid i.v. bolus,dose-dependent increase in HR
same,decrease in BP caused by CVT-3146,"[2]; CVT-3146 alone (comparison with ZM241385), awake rats",14±3%
same,change in BP caused by CVT-3146,[2]; CVT-3146 alone (comparison with hexamethonium),−11±2%
same,increase in HR caused by CVT-3146,"[2]; CVT-3146 alone, awake rats",27±3%
same,solubility in a pharmaceutical composition including MBA,[3],tends to decrease as the composition pH drops towards neutral
same,Vd,[4],75.5 L
same,increase in hind limb blood flow (LBF) compared to ADO,[5],smaller increase in LBF than ADO
